Measured values reported in patent publication US20210315837A1, “CANNABINOIDS FOR THE TREATMENT OF GRAM-POSITIVE INFECTIONS INCLUDING ANTIBIOTIC-RESISTANT BACTERIAL STRAINS” (priority 2018, published 2021).
Converted amounts (≈) assume the structure as drawn. “And” between values parts separate entries of the source, which are not always exact repeats. Equal values may be shown once. Read-outs that look alike come from different tables or passages of the source.

Legend:
MRS USA 400 = assay: IC50, MIC and MBC against MRS USA 400; assay type: cell-based, Staphylococcus aureus
Method: (§1) As used herein, the term “minimum inhibitory concentration (MIC)” refers to the lowest concentration of an antimicrobial agent that will inhibit the visible growth of a microorganism after overnight incubation. MIC values against bacteria may be determined by standard methods. See also P. A. Wayne, Methods for Dilution Antimicrobial Tests for Bacteria that Grow Aerobically; Approved Standard, Ninth Edition, 2012, CLSI Document M07-A9, Vol. 32 No. 2, which is incorporated by reference herein in its entirety.

S. aureus 29213 = assay: IC50, MIC and MBC against S. aureus 29213; assay type: cell-based
Method: As used herein, the term “minimum inhibitory concentration (MIC)” refers to the lowest concentration of an antimicrobial agent that will inhibit the visible growth of a microorganism after overnight incubation. MIC values against bacteria may be determined by standard methods.

MRS USA 300 = assay: IC50, MIC and MBC against MRS USA 300; assay type: cell-based, Staphylococcus aureus
Method: as §1

[1] = tested on: MRS 1708 (Mupirocin-resistant); assay: IC50, MIC and MBC against MRS 1708 (Mupirocin-resistant); assay type: cell-based, Staphylococcus aureus; parameters: AMC: unit not given here
Method: as §1

MRS 33591 [2] = assay: IC50, MIC and MBC against MRS 33591; assay type: cell-based, Staphylococcus aureus
Method: as §1

Mupirocin-resistant MRS = assay type: cell-based, Staphylococcus aureus; details: in combination with Mupirocin
MRS 1696 = assay: Growth inhibition of cannabinoid combinations, IC50s chosen for FICs, MRS 1696; assay type: cell-based; details: Staphylococcus aureus
MRS 1708 = assay: Growth inhibition of cannabinoid combinations, IC50s chosen for FICs, MRS 1708; assay type: cell-based; details: Staphylococcus aureus
MRS 33591 [3] = assay: Growth inhibition of cannabinoid combinations, IC50s chosen for FICs, MRS 33591; assay type: cell-based; details: Staphylococcus aureus
MRS 1717 = assay: Growth inhibition of cannabinoid combinations, IC50s chosen for FICs, MRS 1717; assay type: cell-based; details: Staphylococcus aureus
[4] = MRS USA 400, tested Conc. in μg/mL
[5] = S. aureus 29213, tested Conc. in μg/mL
[6] = S. aureus 29213, tested Conc. in μg/mL, NA given without definition
[7] = MRS USA 300, tested Conc. in μg/mL
[8] = Mupirocin-resistant MRS (Table 11)
[9] = Mupirocin-resistant MRS (Table 11), in µg/mL
[10] = MRS 33591, tested Conc. in μg/mL
[11] = read-out: IC50, Cannabidiol (CBD) + Cannabigerol (CBG)
[12] = read-out: IC50, Cannabidiol (CBD) + Cannabinol (CBN)
[13] = Staphylococcus aureus, S. aureus 29213, tested Conc. in μg/mL, read-out: MIC

Compound	IC50 (MRS USA 400; [4])	MIC (MRS USA 400; [4])	MIC (S. aureus 29213; [5])	IC50 (S. aureus 29213; [6])	IC50 (MRS USA 300; [7])	MIC (MRS USA 300; [7])	AMC [1, 8]	IC50 [1, 9]	IC50 (MRS 33591 [2]; [10])	MIC (MRS 33591 [2]; [10])	IC50 (MRS USA 400; Staphylococcus aureus, USA400)	IC50 (S. aureus 29213; Staphylococcus aureus, 29213)	IC50 (MRS USA 300; Staphylococcus aureus, USA300)	IC50 ([1]; Staphylococcus aureus)	IC50 (MRS 33591 [2]; Staphylococcus aureus)	MIC (MRS 33591 [2]; Staphylococcus aureus)	MBC (MRS 33591 [2]; [10])	further results
CCCCCc1cc(O)c(C/C=C(\C)CCC2OC2(C)C)c(O)c1 (stereo not drawn) [6,7-Epoxycannabigerol]	8.67	20 ± 0	16.67	5.83	7.53	20 ± 0	20 ± 0	7.74 ± 1.17	6.73	13.33								
CCCCCc1cc(O)c2c(c1)OC(C)(C)c1cc(O)c(C)cc1-2 [8-Hydroxycannabinol]	1.82	5 ± 0	5 ± 0	1.2	1.58	5 ± 0		2.15 ± 0.22	2.33	5 ± 0								
CC(C)=CCC/C(C)=C\Cc1c(O)cc(C)cc1O [(Z)-Cannabigerorcin]	7.27	13.33	16.67	8.12	6.46	16.67		6.93 ± 1.54	9.48	20 ± 0								
C=C(C)[C@@H]1CCC(C)=C[C@H]1c1c(O)cc(CCCCC)cc1O [CBD, Cannabidiol]		2.5 ± 0				1.67					3.69 µM and 1.16 µg/mL	1.16 µg/mL (≈ 3.69 µM)	2.99 µM and 0.94 µg/mL	2.86 µM and 0.9 µg/mL	3.24 µM and 1.02 µg/mL	6.61 µM and 2.08 µg/mL		effect of combination with Mupirocin (Mupirocin-resistant MRS): no effect; MIC (MRS USA 400; Staphylococcus aureus, USA400): 7.95 µM (≈ 2.5 µg/mL); IC50 (MRS 1696; [11]): 1.28 µg/mL; IC50 (MRS 1696; [12]): 1.36 µg/mL; IC50 (MRS 1708; read-out: IC50, Cannabidiol (CBD) + Cannabigerol (CBG), IC50 of first-named cannabinoid at the fixed ug/mL of the second given in the label): 0.96 µg/mL; IC50 (MRS 1708; read-out: IC50, Cannabidiol (CBD) + Cannabinol (CBN), IC50 of first-named cannabinoid at the fixed ug/mL of the second given in the label): 1.06 µg/mL; IC50 (MRS 33591 [3]; [11]): 1.23 µg/mL; IC50 (MRS 33591 [3]; [12]): 1.28 µg/mL; MIC (S. aureus 29213; [13]): 2.08 µg/mL (≈ 6.61 µM); MBC (MRS USA 300; [7]): 3.33; MBC (MRS USA 300; Staphylococcus aureus, USA300): 10.6 ± 4.58 µM (≈ 3.33 µg/mL); MIC (MRS USA 300; Staphylococcus aureus, USA300): 5.31 ± 2.29 µM (≈ 1.67 µg/mL); IC50 (MRS 1717; [11]): 0.864 µg/mL; IC50 (MRS 1717; [12]): 1.1 µg/mL; MBC ([1]; Staphylococcus aureus): 10.6 ± 4.58 µM (≈ 3.33 µg/mL); MIC ([1]; Staphylococcus aureus): 5.31 ± 2.29 µM (≈ 1.67 µg/mL)
CCCCCc1cc(O)c2c(c1)OC(C)(CCC=C(C)C)C=C2 (stereo not drawn) [Cannabichromene]											7.28 µg/mL	6.96 µg/mL (≈ 22.1 µM)	6.44 µg/mL	5.04 ± 0.55 µg/mL	2.58 µg/mL	5 µg/mL		
CC(C)=CCCC1(C)C=Cc2c(O)cc(C)cc2O1 (stereo not drawn) [Cannabichromeorcin]	5.9	10 ± 0	10 ± 0	6.94	5.41	10 ± 0	13.33 ± 5.77	5.57 ± 0.27	5.56	10 ± 0							20 ± 0	MBC (MRS USA 400; [4]): 20 ± 0; MBC (MRS USA 300; [7]): 13.33
C=C(C)[C@@H]1CCC(C)=C[C@H]1c1c(O)cc(CCCCC)c(C(=O)O)c1O [Cannabidiolic acid]		13.33				20 ± 0					4.99 µg/mL	6.83 µg/mL (≈ 19.1 µM)	6.11 µg/mL	5.57 ± 0.68 µg/mL	7.27 µg/mL	20 µg/mL		MIC (S. aureus 29213; [13]): 16.7 µg/mL (≈ 46.5 µM)
C=C(C)[C@@H]1CC[C@](C)(O)[C@H]2Oc3cc(CCCCC)cc(O)c3[C@@H]12 [Cannabielsoin]	6.03	10 ± 0	10 ± 0	6.15	5.49	10 ± 0	20 ± 0	6.03 ± 0.49	6.26	10 ± 0								MBC (MRS USA 300; [7]): 20 ± 0
CCCCCc1cc(O)c(C/C=C(\C)CCC=C(C)C)c(O)c1C(=O)O [Cannabigerolic acid]		5 ± 0				8.33					1.67 µg/mL	2.05 µg/mL (≈ 5.69 µM)	1.52 µg/mL	1.55 ± 0.27 µg/mL	2.29 µg/mL	13.3 µg/mL		MIC (S. aureus 29213; [13]): 8.33 µg/mL (≈ 23.1 µM)
O=C(O)c1cn(C2CC2)c2cc(N3CCNCC3)c(F)cc2c1=O [Ciprofloxacin, reference compound]						0.5 ± 0						0.12 µg/mL (≈ 0.362 µM)	0.13 µg/mL		0.12 µg/mL	0.67 µg/mL	0.67	MBC (S. aureus 29213; [5]): 0.67; MIC (S. aureus 29213; Staphylococcus aureus, 29213): 0.5 µg/mL (≈ 1.51 µM); MBC (MRS USA 300; [7]): 0.67
COc1cccc(OC)c1C(=O)N[C@@H]1C(=O)N2[C@@H]1SC(C)(C)[C@@H]2C(=O)O [Methicillin, reference compound]		25 ± 0					25 ± 0				8.78 µM and 3.34 µg/mL	0.65 µg/mL (≈ 1.71 µM)	70.2 µM and 26.7 µg/mL	7.31 µM and 2.78 µg/mL	> 131 µM	> 131 µM		MBC (MRS USA 400; [4]): 41.67; MBC (MRS USA 400; Staphylococcus aureus, USA400): 110 ± 37.9 µM (≈ 41.7 µg/mL); MIC (MRS USA 400; Staphylococcus aureus, USA400): 65.7 µM (≈ 25 µg/mL); MIC (S. aureus 29213; Staphylococcus aureus, 29213): 2.6 ± 0.9 µg/mL (≈ 6.83 µM); MBC (MRS USA 300; Staphylococcus aureus, USA300): > 131 µM; MIC (MRS USA 300; Staphylococcus aureus, USA300): > 131 µM; MBC ([1]; Staphylococcus aureus): 65.7 µM (≈ 25 µg/mL); MIC ([1]; Staphylococcus aureus): 65.7 µM (≈ 25 µg/mL); MBC (MRS 33591 [2]; Staphylococcus aureus): > 131 µM
C/C(=C\C(=O)OCCCCCCCCC(=O)O)C[C@@H]1OC[C@H](C[C@@H]2O[C@H]2[C@@H](C)[C@H](C)O)[C@@H](O)[C@H]1O [Mupirocin, reference compound]		0.16 ± 0				0.23					80 nM and 0.04 µg/mL	0.04 µg/mL (≈ 0.0799 µM)	80 nM and 0.04 µg/mL	> 100 µM	80 nM and 0.04 µg/mL	0.44 µM and 0.22 µg/mL	2.08	MBC (MRS USA 400; [4]): 0.94 ± 0.44; MBC (MRS USA 400; Staphylococcus aureus, USA400): 1.88 ± 0.88 µM (≈ 0.941 µg/mL); MIC (MRS USA 400; Staphylococcus aureus, USA400): 0.32 µM (≈ 0.16 µg/mL); MBC (S. aureus 29213; [5]): 1.25 ± 0; MIC (S. aureus 29213; [13]): 0.39 µg/mL (≈ 0.779 µM); MBC (MRS USA 300; Staphylococcus aureus, USA300): 3.76 ± 1.76 µM (≈ 1.88 µg/mL); MIC (MRS USA 300; Staphylococcus aureus, USA300): 0.46 ± 0.22 µM (≈ 0.23 µg/mL); MBC ([1]; Staphylococcus aureus): > 100 µM; MIC ([1]; Staphylococcus aureus): > 100 µM; MBC (MRS 33591 [2]; Staphylococcus aureus): 4.15 ± 2.6 µM (≈ 2.08 µg/mL)
CCCCCc1cc(O)c(CCC(C)CCCC(C)C)c(O)c1 (stereo not drawn) [Tetrahydro CBG, Tetrahydrocannabigerol]	1.12	2.5 ± 0	1.25 ± 0	0.7	0.82 ± 0.1	2.08	3.33 ± 1.44	0.83 ± 0.2	0.67 ± 0	1.25 ± 0							3.75	MBC (MRS USA 400; MRS USA 400): 31.2 ± 0 µM (≈ 10 µg/mL); MIC (MRS USA 400; MRS USA 400): 7.8 ± 0 µM (≈ 2.5 µg/mL); IC50 (MRS USA 400; MRS USA 400, read-out: IC50): 3.49 ± 0.5 µM; MBC (MRS USA 400; [4]): 10 ± 0; MBC (MRS USA 300; MRS USA 300): >62 µM; MIC (MRS USA 300; MRS USA 300): 6.49 ± 2.25 µM (≈ 2.08 µg/mL); IC50 (MRS USA 300; MRS USA 300, read-out: IC50): 2.56 ± 0.31 µM; MBC ([1]; MRS 1708 (Mupirocin-resistant)): 10.39 ± 4.49 µM (≈ 3.33 µg/mL); MIC ([1]; MRS 1708 (Mupirocin-resistant)): 5.21 ± 2.25 µM (≈ 1.67 µg/mL); IC50 ([1]; MRS 1708 (Mupirocin-resistant), read-out: IC50): 2.59 ± 0.62 µM; MBC (MRS 33591 [2]; MRS 33591): 11.7 ± 5.52 µM (≈ 3.75 µg/mL); MIC (MRS 33591 [2]; MRS 33591): 3.9 ± 0 µM; IC50 (MRS 33591 [2]; MRS 33591, read-out: IC50): 2.09 µM
CCCCCc1cc(O)c2c(c1)OC(C)(C)[C@@H]1CC=C(C)C[C@@H]21 [Δ8-Tetrahydrocannabinol]	2.55	10 ± 0	2.5 ± 0	1.47	1.91	5 ± 0	10 ± 8.66	1.82 ± 0.08	1.43	2.5 ± 0							10 ± 0	
Methyl tetrahydrocannabigerol	1.91 and 1.42			1.8 and 1.53	1.76 and 1.26		8.33 ± 2.89		1.83 and 1.39									MBC (S. aureus 29213; [5]): 10 ± 0
Tetrahydrocannabigerolic acid	2.79	13.33	20 ± 0	3.67	2.98	20 ± 0		3.24 ± 0.13	4.33	20 ± 0								
